From the NIST ThermoML archive (doi:10.1021/je300240k)
Values joined by “and” are separate entries in the source; they are usually repeats but may differ in a detail not shown here. Equal values may be shown once. Numbers after ± are expanded uncertainties.

Conditions: Liquid, Ebulliometric method (Recirculating still)

F/C=C/C(F)(F)F [trans-1,3,3,3-tetrafluoropropene]
vapor or sublimation pressure (223.1 K): 21 ± 2 kPa | vapor or sublimation pressure (228.08 K): 28 ± 2 kPa | vapor or sublimation pressure (232.99 K): 36 ± 2 kPa | vapor or sublimation pressure (238.04 K): 47 ± 2 kPa | vapor or sublimation pressure (243.02 K): 61 ± 2 kPa | vapor or sublimation pressure (248.04 K): 77 ± 2 kPa | vapor or sublimation pressure (253.02 K): 96 ± 2 kPa | vapor or sublimation pressure (257.14 K): 115 ± 2 kPa | vapor or sublimation pressure (258.04 K): 119 ± 2 kPa | vapor or sublimation pressure (259.15 K): 125 ± 2 kPa | vapor or sublimation pressure (261.15 K): 136 ± 2 kPa | vapor or sublimation pressure (263.1 K): 147 ± 2 kPa | vapor or sublimation pressure (263.15 K): 147 ± 2 kPa | vapor or sublimation pressure (265.15 K): 160 ± 2 kPa | vapor or sublimation pressure (267.15 K): 173 ± 2 kPa | vapor or sublimation pressure (268.01 K): 178 ± 2 kPa | vapor or sublimation pressure (269.15 K): 186 ± 2 kPa | vapor or sublimation pressure (271.15 K): 201 ± 2 kPa | vapor or sublimation pressure (273.06 K): 216 ± 2 kPa | vapor or sublimation pressure (273.15 K): 216 ± 2 kPa | vapor or sublimation pressure (275.15 K): 233 ± 2 kPa | vapor or sublimation pressure (277.15 K): 250 ± 2 kPa | vapor or sublimation pressure (278.01 K): 258 ± 2 kPa | vapor or sublimation pressure (279.15 K): 269 ± 2 kPa | vapor or sublimation pressure (281.15 K): 288 ± 2 kPa | vapor or sublimation pressure (282.93 K): 306 ± 2 kPa | vapor or sublimation pressure (283.15 K): 308 ± 2 kPa | vapor or sublimation pressure (285.15 K): 330 ± 2 kPa | vapor or sublimation pressure (287.15 K): 352 ± 2 kPa | vapor or sublimation pressure (287.89 K): 361 ± 2 kPa | vapor or sublimation pressure (289.15 K): 376 ± 2 kPa | vapor or sublimation pressure (291.15 K): 401 ± 2 kPa | vapor or sublimation pressure (292.85 K): 423 ± 2 kPa | vapor or sublimation pressure (293.15 K): 427 ± 2 kPa | vapor or sublimation pressure (295.15 K): 455 ± 2 kPa | vapor or sublimation pressure (297.15 K): 484 ± 2 kPa | vapor or sublimation pressure (297.69 K): 492 ± 2 kPa | vapor or sublimation pressure (297.87 K): 495 ± 2 kPa | vapor or sublimation pressure (298.77 K): 508 ± 2 kPa | vapor or sublimation pressure (299.15 K): 514 ± 2 kPa | vapor or sublimation pressure (301.15 K): 546 ± 2 kPa | vapor or sublimation pressure (303.15 K): 579 ± 2 kPa | vapor or sublimation pressure (303.68 K): 588 ± 2 kPa | vapor or sublimation pressure (305.15 K): 614 ± 2 kPa and 613 ± 2 kPa | vapor or sublimation pressure (307.15 K): 649 ± 2 kPa | vapor or sublimation pressure (308.82 K): 681 ± 2 kPa | vapor or sublimation pressure (309.15 K): 687 ± 2 kPa | vapor or sublimation pressure (311.15 K): 726 ± 2 kPa | vapor or sublimation pressure (312.85 K): 761 ± 2 kPa | vapor or sublimation pressure (313.15 K): 767 ± 2 kPa | vapor or sublimation pressure (315.15 K): 810 ± 2 kPa | vapor or sublimation pressure (317.15 K): 854 ± 3 kPa | vapor or sublimation pressure (317.75 K): 868 ± 3 kPa | vapor or sublimation pressure (319.15 K): 900 ± 3 kPa | vapor or sublimation pressure (321.15 K): 948 ± 3 kPa | vapor or sublimation pressure (323.1 K): 997 ± 3 kPa | vapor or sublimation pressure (323.15 K): 998 ± 3 kPa | vapor or sublimation pressure (325.15 K): 1050 ± 3 kPa | vapor or sublimation pressure (327.15 K): 1104 ± 3 kPa | vapor or sublimation pressure (328.12 K): 1130 ± 3 kPa | vapor or sublimation pressure (329.15 K): 1160 ± 3 kPa | vapor or sublimation pressure (331.15 K): 1218 ± 3 kPa | vapor or sublimation pressure (333.11 K): 1276 ± 3 kPa | vapor or sublimation pressure (333.15 K): 1278 ± 3 kPa | vapor or sublimation pressure (335.15 K): 1340 ± 3 kPa | vapor or sublimation pressure (337.15 K): 1405 ± 3 kPa | vapor or sublimation pressure (338.11 K): 1436 ± 3 kPa | vapor or sublimation pressure (339.15 K): 1472 ± 3 kPa | vapor or sublimation pressure (341.15 K): 1541 ± 3 kPa | vapor or sublimation pressure (343.1 K): 1610 ± 3 kPa | vapor or sublimation pressure (343.15 K): 1613 ± 3 kPa | vapor or sublimation pressure (348.09 K): 1799 ± 3 kPa | vapor or sublimation pressure (353.08 K): 2005 ± 3 kPa
